Assay results taken from patent US20230086703A1, “N-(4-(5-chloropyridin-3-yl)phenyl)-2-(2-(cyclopropanesulfonamido)pyrimidin-4-yl) butanamide derivatives and related compounds as human CTPS1 inhibitors for the treatment of proliferative diseases” (Step Pharma S.A.S., priority 2019, published 2023).
Where two headings read alike, the source gives them in different places.

What was measured:
[1] = target: T1, human CTPS1 (Homo sapiens, UniProt P17812); assay: Human CTPS1 enzyme inhibition, ADP-Glo Max assay; assay type: biochemical
T1 construct: FLAG (with GG linker); His8 (with GG linker); purchased Proteros biostructures GmbH
T1 sequence (P17812 1-591): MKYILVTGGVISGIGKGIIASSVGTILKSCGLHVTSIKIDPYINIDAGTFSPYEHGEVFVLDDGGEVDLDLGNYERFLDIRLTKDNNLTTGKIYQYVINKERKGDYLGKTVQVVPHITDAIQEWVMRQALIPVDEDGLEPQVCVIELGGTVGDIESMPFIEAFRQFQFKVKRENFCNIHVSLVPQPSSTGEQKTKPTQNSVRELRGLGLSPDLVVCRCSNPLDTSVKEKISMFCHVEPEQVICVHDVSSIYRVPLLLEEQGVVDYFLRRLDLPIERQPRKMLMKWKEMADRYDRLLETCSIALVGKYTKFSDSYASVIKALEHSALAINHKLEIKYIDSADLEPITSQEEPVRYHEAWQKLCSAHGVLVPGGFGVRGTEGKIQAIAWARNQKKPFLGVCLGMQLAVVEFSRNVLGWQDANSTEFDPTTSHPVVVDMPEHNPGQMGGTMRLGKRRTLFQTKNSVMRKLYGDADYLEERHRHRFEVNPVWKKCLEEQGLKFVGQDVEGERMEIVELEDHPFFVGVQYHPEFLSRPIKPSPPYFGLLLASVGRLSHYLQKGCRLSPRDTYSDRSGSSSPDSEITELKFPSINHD
Method in brief: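 Enzyme preincubated with compound for 10 min at 25 °C in 50 mM Tris pH 8.0, 10 mM MgCl2, 0.01% Tween-20, 2 mM L-cysteine. ATP-to-ADP conversion detected by ADP-Glo Max luminescence after 60 min depletion and 60 min development steps. Percentage inhibition calculated per concentration.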

[2] = target: T1, human CTPS1; assay: RapidFire/MS-based enzyme selectivity assay (human CTPS1 versus CTPS2), CTPS1 isoform; assay type: biochemical; settings: RapidFire/MS IC50 values of CTPS1 and CTPS2
Method in brief: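 Full-length C-terminal FLAG-His-tagged CTPS1 (1-591) was preincubated 10 min at 25 °C with compound in HEPES pH 8.0 buffer with MgCl2, KCl, DTT and Tween-20. Reactions were started with a 2× mix of ATP 0.3 mM, UTP 0.2 mM, GTP 0.07 mM and L-glutamine 0.1 mM, and run in the linear phase at 25 °C. IC50 comes from the RapidFire-MS ratio of CTP to 13C9-15N3-CTP.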

[3] = Table 12, ADP-Glo Max assay, read-out: CTPS1 (Human CTPS1 Enzyme Inhibition data grouped by potency range)

Row | Structure (SMILES) | IC50 [1, 3] | Selectivity (fold selectivity between CTPS1 and CTPS2) ([2]; Table 17) | IC50 ([1]; ADP-Glo Max assay, human full length CTPS1, read-out: CTPS1 (Human CTPS1 Enzyme Inhibition data grouped by potency range, IC50)) | Selectivity (fold selectivity between CTPS1 and CTPS2) ([2]; Table 15)
1 | CCOc1cncc(-c2ccc(NC(=O)C3(c4ccnc(NS(=O)(=O)C5CC5)n4)CCC(N(C)C)CC3)nc2)n1 (single isomer, unassigned) [P230, 1-(2-(cyclopropanesulfonamido)pyrimidin-4-yl)-4-(dimethylamino)-N-(5-(6-ethoxypyrazin-2-yl)pyridin-2-yl)cyclohexane-1-carboxamide] | 1000 to 10000 nM | + (2-30 fold (+)) | – | –
2 | CCOc1cncc(-c2ccc(NC(=O)C(F)(CC)c3ccnc(NS(=O)(=O)C4CC4)n3)nc2)n1 (stereo not drawn) [P112, 2-(2-(Cyclopropanesulfonamido)pyrimidin-4-yl)-N-(5-(6-ethoxypyrazin-2-yl)pyridin-2-yl)-2-fluorobutanamide] | – | – | < 100 nM | ++ (>30-60 fold (++))
3 | CCOc1cncc(-c2ccc(NC(=O)C3(c4ccnc(NS(=O)(=O)C5CC5)n4)CCN(S(=O)(=O)CC)CC3)nc2)n1 [P289] | < 100 nM | +++ (>60 fold (+++)) | – | –
4 | CCOc1cncc(-c2ccc(NC(=O)C3(c4ccnc(NS(=O)(=O)C5CC5)n4)CCN(S(=O)(=O)C4CC4)CC3)nc2)n1 [P290] | < 100 nM | +++ (>60 fold (+++)) | – | –
5 | CCOc1cncc(-c2ccc(NC(=O)C3(c4ccnc(NS(=O)(=O)C5CC5)n4)CCN(S(=O)(=O)N(C)C)CC3)nc2)n1 [P291] | < 100 nM | +++ (>60 fold (+++)) | – | –
6 | CCOc1cncc(-c2ccc(NC(=O)C3(c4ccnc(NS(=O)(=O)C5CC5)n4)CCN(S(=O)(=O)C(F)(F)F)CC3)nc2)n1 [P292] | < 100 nM | +++ (>60 fold (+++)) | – | –
7 | CCOc1cncc(-c2ccc(NC(=O)C3(c4ccnc(NS(=O)(=O)C5CC5)n4)CCN(S(=O)(=O)c4ccn(C)n4)CC3)nc2)n1 [P293] | < 100 nM | +++ (>60 fold (+++)) | – | –
8 | CCOc1cncc(-c2ccc(NC(=O)C3(c4nccc(NS(=O)(=O)C5CC5)n4)CCN(CC#N)CC3)nc2)n1 [P294] | < 100 nM | +++ (>60 fold (+++)) | – | –
9 | CCOc1cncc(-c2ccc(NC(=O)C3(c4ccnc(NS(=O)(=O)CC)n4)CCN(S(C)(=O)=O)CC3)nc2)n1 [P297] | < 100 nM | +++ (>60 fold (+++)) | – | –
10 | CCOc1cncc(-c2ccc(NC(=O)C3(c4ccnc(NS(=O)(=O)CC)n4)CCN(S(=O)(=O)CC)CC3)nc2)n1 [P298] | < 100 nM | +++ (>60 fold (+++)) | – | –
11 | CCOc1cncc(-c2ccc(NC(=O)C3(c4ccnc(NS(=O)(=O)CC)n4)CCN(S(=O)(=O)C4CC4)CC3)nc2)n1 [P299] | < 100 nM | +++ (>60 fold (+++)) | – | –

The remaining lines, values ahead:

Row | IC50 [1, 3] | Selectivity (fold selectivity between CTPS1 and CTPS2) ([2]; Table 17) | IC50 ([1]; ADP-Glo Max assay, human full length CTPS1, read-out: CTPS1 (Human CTPS1 Enzyme Inhibition data grouped by potency range, IC50)) | Selectivity (fold selectivity between CTPS1 and CTPS2) ([2]; Table 15) | Structure (SMILES)
12 | < 100 nM | +++ (>60 fold (+++)) | – | – | CCOc1cncc(-c2ccc(NC(=O)C3(c4ccnc(NS(=O)(=O)CC)n4)CCN(S(=O)(=O)c4ccn(C)n4)CC3)nc2)n1 [P300]
13 | < 100 nM | +++ (>60 fold (+++)) | – | – | COC1CCC(C(=O)Nc2ccc(-c3cncc(C4CC4)n3)cn2)(c2ccnc(NS(=O)(=O)C3CC3)n2)CC1 (stereo not drawn) [P301]
14 | < 100 nM | +++ (>60 fold (+++)) | – | – | CCOc1cncc(-c2ccc(NC(=O)C3(c4ccnc(NS(=O)(=O)C5CC5)n4)CCC(N4CCCC4)CC3)nc2)n1 (stereo not drawn) [P302]
15 | 100 to 1000 nM | +++ (>60 fold (+++)) | – | – | CCOc1cncc(-c2ccc(NC(=O)C3(c4ccnc(NS(=O)(=O)C5CC5)n4)CCC(N4CCCC4)CC3)nc2)n1 (stereo not drawn) [P303]
16 | 100 to 1000 nM | +++ (>60 fold (+++)) | – | – | CCOc1cncc(-c2ccc(NC(=O)C3(c4ccnc(NS(=O)(=O)C5CC5)n4)CCC(N4CCOCC4)CC3)nc2)n1 (stereo not drawn) [P305]
17 | < 100 nM | +++ (>60 fold (+++)) | – | – | CCOc1cncc(-c2ccc(NC(=O)C3(c4ccnc(NS(=O)(=O)C5CC5)n4)CCC(N4CCOCC4)CC3)nc2)n1 (stereo not drawn) [P306]
18 | < 100 nM | +++ (>60 fold (+++)) | – | – | CCOc1cncc(-c2ccc(NC(=O)C3(c4ccnc(NS(=O)(=O)C5CC5)n4)CCC(N(C)C4COC4)CC3)nc2)n1 (stereo not drawn) [P307]
19 | < 100 nM | +++ (>60 fold (+++)) | – | – | CCOc1cncc(-c2ccc(NC(=O)C3(c4ccnc(NS(=O)(=O)C5CC5)n4)CCC(N(C)CCOC)CC3)nc2)n1 (stereo not drawn) [P308]
20 | 100 to 1000 nM | +++ (>60 fold (+++)) | – | – | CCOc1cncc(-c2ccc(NC(=O)C3(c4ccnc(NS(=O)(=O)C5CC5)n4)CCC(N(C)CCOC)CC3)nc2)n1 (stereo not drawn) [P309]
21 | < 100 nM | +++ (>60 fold (+++)) | – | – | CCOc1cncc(-c2ccc(NC(=O)C3(c4ccnc(NS(=O)(=O)C5CC5)n4)CCC(N4CCN(C)CC4)CC3)nc2)n1 (stereo not drawn) [P312]
22 | < 100 nM | +++ (>60 fold (+++)) | – | – | COC1CCC(C(=O)Nc2ccc(-c3cncc(C4CC4)n3)cn2)(c2ccnc(NS(=O)(=O)C3CC3)n2)CC1 (stereo not drawn) [P313]
23 | < 100 nM | +++ (>60 fold (+++)) | – | – | CCOc1cncc(-c2ccc(NC(=O)C3(c4cncc(NS(=O)(=O)C5CC5)n4)CCN(S(C)(=O)=O)CC3)nc2)n1 [P314]
24 | < 100 nM | +++ (>60 fold (+++)) | – | – | CS(=O)(=O)N1CCC(C(=O)Nc2ccc(-c3cncc(C4CC4)n3)cn2)(c2nccc(NS(=O)(=O)C3CC3)n2)CC1 [P315]
25 | < 100 nM | +++ (>60 fold (+++)) | – | – | CCOc1cncc(-c2ccc(NC(=O)C3(c4nccc(NS(=O)(=O)C5CC5)n4)CCN(S(C)(=O)=O)CC3)nc2)n1 [P316]
26 | < 100 nM | +++ (>60 fold (+++)) | – | – | CCS(=O)(=O)N1CCC(C(=O)Nc2ccc(-c3cncc(C4CC4)n3)cn2)(c2nccc(NS(=O)(=O)C3CC3)n2)CC1 [P317]
27 | < 100 nM | +++ (>60 fold (+++)) | – | – | CCOc1cncc(-c2ccc(NC(=O)C3(c4nccc(NS(=O)(=O)C5CC5)n4)CCN(S(=O)(=O)CC)CC3)nc2)n1 [P318]
